According to ChEMBL document CHEMBL1201862, “PubChem BioAssay data set” (2004):
The source made the active and inactive calls.

Legend:
[1] = inhibitors of intracellular T. cruzi replication, confirmation, NIH3T3 host cells, beta-gal luminescence (AID 2044); type: functional, cell-based;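 also: intracellular parasites grown in NIH/3T3 mouse fibroblasts as host cells; luminescent beta-galactosidase reporter signal from transgenic T. cruzi replicating inside host cells; inhibitors lower the luminescence signal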
[2] = cytotoxicity toward NIH3T3 fibroblasts, dose response, counter-screen, cell-based, ATP luminescence, mouse fibroblasts (AID 2010); type: functional;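 also: cells exposed to compound for about 90 hours before reading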
[3] = tested on: Candida albicans; assay: growth inhibition of resistant C. albicans, dose response, CaCi-8 strain, fluconazole, dry powder, set 4 (AID 488950); type: functional, organism-based
[4] = tested on: Candida albicans; assay: fluconazole resistance reversal in C. albicans, dose response, CaCi-2 strain, Alamar Blue, dry powder, set 4 (AID 488943); type: functional, organism-based
[5] = tested on: Candida albicans; assay: growth inhibition of resistant C. albicans, dose response, CaCi-8, fluconazole, Alamar Blue, dry powder (AID 488807); type: functional, organism-based
[6] = tested on: NIH3T3; assay: cytotoxicity in NIH-3T3 fibroblasts, dose response, cytotoxicity control for antifungal drug resistance project, cell-based, Alamar Blue, fluconazole, dry powder (AID 488809); type: functional; conditions: Mus musculus
[7] = target: Tyrosine-protein phosphatase non-receptor type 7 (Homo sapiens, UniProt P35236); type: functional
Tyrosine-protein phosphatase non-receptor type 7, sequence (P35236 whole entry): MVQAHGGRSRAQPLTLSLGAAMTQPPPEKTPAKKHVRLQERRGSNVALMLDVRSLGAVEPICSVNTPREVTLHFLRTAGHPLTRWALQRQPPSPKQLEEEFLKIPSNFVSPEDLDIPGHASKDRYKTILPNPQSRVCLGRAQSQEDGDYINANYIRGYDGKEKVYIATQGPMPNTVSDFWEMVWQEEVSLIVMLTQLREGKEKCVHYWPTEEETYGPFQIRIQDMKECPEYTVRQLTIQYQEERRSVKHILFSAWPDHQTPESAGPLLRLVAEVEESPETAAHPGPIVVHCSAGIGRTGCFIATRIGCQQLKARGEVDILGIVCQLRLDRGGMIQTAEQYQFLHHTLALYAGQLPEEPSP

[8] = target: Glyceraldehyde-3-phosphate dehydrogenase (Homo sapiens, UniProt P04406)
Glyceraldehyde-3-phosphate dehydrogenase, sequence (P04406 whole entry): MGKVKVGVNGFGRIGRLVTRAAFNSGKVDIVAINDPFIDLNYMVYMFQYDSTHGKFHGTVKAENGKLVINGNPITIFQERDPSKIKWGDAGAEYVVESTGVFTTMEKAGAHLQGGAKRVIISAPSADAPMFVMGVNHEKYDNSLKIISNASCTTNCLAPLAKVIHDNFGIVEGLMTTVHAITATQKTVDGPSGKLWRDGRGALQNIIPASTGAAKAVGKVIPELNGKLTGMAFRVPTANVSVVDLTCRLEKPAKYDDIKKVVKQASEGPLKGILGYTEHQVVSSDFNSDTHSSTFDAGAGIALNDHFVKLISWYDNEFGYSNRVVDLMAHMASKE

[9] = target: T1, Dual specificity protein phosphatase 6 (Rattus norvegicus, UniProt Q64346)
T1 sequence (Q64346 whole entry): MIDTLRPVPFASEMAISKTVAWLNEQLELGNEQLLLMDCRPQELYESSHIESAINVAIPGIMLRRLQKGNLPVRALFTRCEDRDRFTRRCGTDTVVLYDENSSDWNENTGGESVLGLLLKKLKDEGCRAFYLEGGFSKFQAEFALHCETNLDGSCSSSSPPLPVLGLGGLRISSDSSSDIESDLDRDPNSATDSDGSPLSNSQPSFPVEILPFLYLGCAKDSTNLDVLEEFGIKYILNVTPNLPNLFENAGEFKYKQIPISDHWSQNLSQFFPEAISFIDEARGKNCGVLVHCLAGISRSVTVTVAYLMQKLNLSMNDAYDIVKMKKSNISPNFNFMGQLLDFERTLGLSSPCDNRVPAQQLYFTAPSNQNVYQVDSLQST

[10] = target: T1, Dual specificity protein phosphatase 6; type: functional
[11] = tested on: HEK293; assay: cytotoxicity in HEK293T NF-kB-Luc cells, SAR follow-up, cytotoxicity control for NF-kB activator project, cell-based, resazurin fluorescence (AID 493251); type: functional; conditions: Homo sapiens
[12] = tested on: Jurkat; assay: SAR Analysis of small molecule inhibitors of T-cell specific antigen receptor-induced NF-kB activation in a Jurkat cell line using a luminescence assay - Set 2. [Related pubchem assays (depositor defined):AID435003, AID435012, AID465]; type: functional, cell-based; conditions: Homo sapiens
[13] = tested on: HEK293; assay: SAR Analysis of small molecule inhibitors of T-cell specific antigen receptor-induced NF-kB activation in a HEK-293T cell line using a luminescence assay - Set 2. [Related pubchem assays (depositor defined):AID435003, AID435012, AID489026]; type: functional, cell-based; conditions: Homo sapiens
[14] = target: Beta-galactosidase (Escherichia coli, UniProt Q8VNN2); assay: PubChem AID 485352; type: functional
Beta-galactosidase, sequence (Q8VNN2 whole entry): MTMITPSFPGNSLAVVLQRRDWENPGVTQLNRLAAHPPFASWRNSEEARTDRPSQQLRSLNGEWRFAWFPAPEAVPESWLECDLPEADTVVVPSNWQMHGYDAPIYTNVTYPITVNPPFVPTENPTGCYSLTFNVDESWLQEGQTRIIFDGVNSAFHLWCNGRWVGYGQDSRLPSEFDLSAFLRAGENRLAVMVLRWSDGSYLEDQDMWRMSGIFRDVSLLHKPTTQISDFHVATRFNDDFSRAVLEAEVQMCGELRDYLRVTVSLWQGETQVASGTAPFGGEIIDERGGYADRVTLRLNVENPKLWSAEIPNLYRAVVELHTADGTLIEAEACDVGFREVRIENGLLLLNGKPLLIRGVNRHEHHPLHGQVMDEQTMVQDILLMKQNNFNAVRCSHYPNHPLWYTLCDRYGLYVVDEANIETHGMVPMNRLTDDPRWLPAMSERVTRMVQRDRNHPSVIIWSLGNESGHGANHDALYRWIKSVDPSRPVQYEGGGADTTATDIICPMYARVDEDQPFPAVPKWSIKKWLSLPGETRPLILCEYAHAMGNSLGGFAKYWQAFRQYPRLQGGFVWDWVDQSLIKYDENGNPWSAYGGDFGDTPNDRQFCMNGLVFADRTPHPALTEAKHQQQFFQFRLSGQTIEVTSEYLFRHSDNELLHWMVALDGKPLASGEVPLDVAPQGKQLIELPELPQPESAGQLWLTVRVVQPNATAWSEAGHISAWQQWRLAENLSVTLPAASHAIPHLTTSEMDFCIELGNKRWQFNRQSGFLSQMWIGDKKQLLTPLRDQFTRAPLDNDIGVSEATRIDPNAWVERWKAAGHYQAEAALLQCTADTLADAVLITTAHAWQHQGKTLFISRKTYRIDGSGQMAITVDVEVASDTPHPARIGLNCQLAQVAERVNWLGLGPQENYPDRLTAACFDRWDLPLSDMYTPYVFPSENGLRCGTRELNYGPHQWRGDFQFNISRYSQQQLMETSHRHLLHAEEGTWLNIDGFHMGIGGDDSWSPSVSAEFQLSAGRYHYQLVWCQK

[15] = target: T2, Type-1 angiotensin II receptor (Homo sapiens, UniProt P30556); assay: AT1 receptor antagonists, dose response, selectivity assay for APJ receptor antagonist project, cell-based, uHTS hits (AID 463214); type: functional;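 also: antagonist potency against angiotensin II stimulated AT1 response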
T2 sequence (P30556 whole entry): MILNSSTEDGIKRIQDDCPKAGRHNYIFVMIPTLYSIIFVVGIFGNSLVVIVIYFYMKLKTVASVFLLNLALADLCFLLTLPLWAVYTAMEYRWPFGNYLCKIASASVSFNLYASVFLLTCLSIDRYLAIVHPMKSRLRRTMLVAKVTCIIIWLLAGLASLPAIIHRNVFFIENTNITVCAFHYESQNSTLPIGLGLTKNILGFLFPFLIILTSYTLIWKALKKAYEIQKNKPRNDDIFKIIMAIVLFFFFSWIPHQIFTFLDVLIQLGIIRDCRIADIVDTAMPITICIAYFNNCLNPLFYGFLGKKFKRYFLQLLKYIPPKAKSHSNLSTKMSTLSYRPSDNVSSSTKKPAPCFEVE

[16] = target: T3, Polyadenylate-binding protein 1 (Homo sapiens, UniProt P11940); assay: PABP1 MLLE–PAM2 interaction inhibitors, dose response, miRNA deadenylation inhibitor project, biochemical, fluorescence polarization, Cy5-PAM2 peptide, secondary (AID 602260); type: functional; conditions: read-out: IC50_Mean
T3 sequence (P11940 whole entry): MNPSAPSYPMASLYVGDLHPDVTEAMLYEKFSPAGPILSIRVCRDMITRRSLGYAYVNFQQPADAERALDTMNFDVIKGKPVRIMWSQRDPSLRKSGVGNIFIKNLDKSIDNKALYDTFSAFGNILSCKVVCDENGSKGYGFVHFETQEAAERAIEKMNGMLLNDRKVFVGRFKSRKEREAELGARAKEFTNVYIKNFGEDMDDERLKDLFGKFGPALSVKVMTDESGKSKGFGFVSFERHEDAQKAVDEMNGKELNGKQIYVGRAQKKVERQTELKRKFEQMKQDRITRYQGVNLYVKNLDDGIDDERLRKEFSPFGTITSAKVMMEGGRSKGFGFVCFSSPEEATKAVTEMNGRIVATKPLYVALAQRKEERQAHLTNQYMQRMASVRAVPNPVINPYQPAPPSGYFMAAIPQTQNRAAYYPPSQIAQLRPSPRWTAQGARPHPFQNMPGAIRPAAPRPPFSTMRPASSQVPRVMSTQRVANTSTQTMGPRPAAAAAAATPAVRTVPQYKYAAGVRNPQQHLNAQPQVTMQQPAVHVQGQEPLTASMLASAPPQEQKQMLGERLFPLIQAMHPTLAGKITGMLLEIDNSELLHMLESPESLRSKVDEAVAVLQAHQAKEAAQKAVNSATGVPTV

[17] = target: T3, Polyadenylate-binding protein 1; assay: PABP1 MLLE–PAM2 binding inhibitor potency, dose response, biochemical, fluorescence polarization, FITC-PAM2 peptide (AID 602259); type: functional; conditions: read-out: IC50_Mean
[18] = tested on: Jurkat; assay: antigen receptor-induced NF-kB inhibitors, dose response, Jurkat, luciferase reporter, luminescence, B- and T-cell (AID 489004); type: functional, cell-based; conditions: Homo sapiens;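 also: NF-kB luciferase reporter Jurkat cells stimulated with PMA plus ionomycin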
[19] = cytotoxicity in HEK-293T NF-kB-Luc cells, dose response, cytotoxicity control for B/T-cell NF-kB inhibitor project, cell-based, uHTS hits (AID 489019); type: functional;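 also: IC50 reflects cytotoxicity as loss of cell viability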
[20] = tested on: INS1; assay: beta cell apoptosis inhibitors, cytokine rescue, dose response, luminescence, retest (AID 449756); type: functional, cell-based; conditions: Rattus norvegicus;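 also: cell death triggered by IL-1 beta plus TNF-alpha plus IFN-gamma mixture; protective hits raise ATP signal compared with cytokine alone wells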
[21] = Luminescence Cell-Based Dose Response Follow up to Identify Inhibitors of Platelet Dense Granule Release. [Related pubchem assays (depositor defined):AID1663, AID1678, AID2398]; type: functional
[22] = target: T4, Endoribonuclease toxin MazF (Escherichia coli K-12, UniProt P0AE70); assay: MazF toxin RNase activators, dose response, biochemical, fluorescence, single-stranded RNA substrate, uHTS hits (AID 588481); type: functional
T4 sequence (P0AE70 whole entry): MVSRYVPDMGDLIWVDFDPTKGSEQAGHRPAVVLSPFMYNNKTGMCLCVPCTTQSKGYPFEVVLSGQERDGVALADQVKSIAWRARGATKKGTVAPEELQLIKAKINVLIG

[23] = target: T4, Endoribonuclease toxin MazF; assay: fluorescent RNA oligo signal without MazF, dose response, counter-screen for MazEF activator project, biochemical, fluorescence, single-stranded RNase substrate (AID 588502); type: functional

## O=C(Nc1ccc(C(F)(F)F)cc1)N1CCN(c2ccnc3cc(Cl)ccc23)CC1
[1]
  EC50: 3.22 µM (active)
[2]
  EC50: > 60 µM (not active)
[3]
  AC50: 9.05 µM (active)
[4]
  AC50: 4.73 µM (active)
[5]
  AC50: 0.404 µM (active)
[6]
  AC50: 7.27 µM (active)

## NC(=O)[C@H](Cc1ccccc1)n1c(=O)n(Cc2ccc(Br)cc2)c(=O)n(-c2ccccc2)c1=O
[7]
  IC50: > 100 µM (not active)
[8]
  IC50: > 100 µM (not active)
[9]
  IC50: > 100 µM (inactive)
[10]
  IC50: > 100 µM (inactive)

## O=C(Nc1cccc2ncccc12)c1ccc([N+](=O)[O-])o1
[11]
  IC50: 69.4 µM (inactive)
[12]
  IC50: 21.8 µM (inactive)
[13]
  IC50: 23.4 µM (inactive)

## Cc1c(Cl)cccc1NC(=S)NNc1ncc(C(F)(F)F)cc1Cl
[14]
  EC50: > 40 µM (inactive)
[15]
  IC50: 11.9 µM (active)
[16]
  IC50: > 66 µM (inactive)
[17]
  IC50: > 66 µM (inactive)

## Cc1ccc(NC(=O)COc2ccc(N(C)C(=O)C(C)(C)C)cc2)cc1S(=O)(=O)N1CCCCC1
[18]
  IC50: 8.2 µM (active)
[19]
  IC50: > 80 µM (inactive)
[20]
  AC50: 5.61 µM (active)

## CC(=O)N/N=C(\C)c1ccc(NC(=O)C2CC2)cc1
[21]
  EC50: 500 µM (inactive)

## CCOC(=O)c1c(N=C(S)Nc2ccc(Cl)cc2)sc2c1CCN(C)C2
[22]
  EC50: > 99 µM (inactive)
[23]
  EC50: > 99 µM (inactive)
